Assays:
Assay type in all cases: in vivo, rat
ZDF rats [1] = assay: Urinary albumin/creatinine in ZDF rats, treatment starting at an animal age of 6 months; details: start at age 6 months, mean
ZDF rats [2] = assay: RP-HPLC analysis of CML in kidney and heart of ZDF rats; details: for mean CML conc.: RP-HPLC, ZDF Placebo = 100
Description: Kidney AGE values were determined by Dot blot analysis (Stracke et al., Exp. Clin. Endocrinol. Diabets 2002, 109, 330-336) and Reversed-phase high performance liquid chromatography or RP-HPLC (Drusch et al., Food Chem. 1999, 65, 547-553).
[…] Two animals of each group were analyzed. Grinding of the kidney and heart was performed in liquid nitrogen using a freezer mill (Freezer 6750, C3 Analysetechnik GmbH). Hydrolysis of the organ samples was performed with 6 M hydrochloric acid (HCl) at 110° C. for 12 hours. Sample treatment with o-phthaldialdehyde (OPA) and RP-HPLC was performed as described in Drusch et al., Food Chem. 1999, 65, 547-553.

[3] = tested on: Zucker diabetic fatty rats; assay: Blood glucose analysis in ZDF rats; details: for blood glucose, mean: ZDF rats
Description: (§1) Blood glucose and HbA1c was measured in 10- and 17-week-old male Zucker diabetic fatty rats (Genetic Model Inc.), control rats (Genetic Model Inc.) and male ZDF rats treated for seven weeks with 30 mg/kg/d of compound (II-B), 35 mg/kg/d of compound (III-B) and 1 mg/kg/d ramipril. Fifteen animals were analyzed in each group.
Blood samples for glucose determination were obtained from ZDF rats using standard sampling tubes. Within 30 minutes of collection, samples were separated from the cells by centrifugation. Quantitative determination of blood glucose in serum was performed with an enzymatic in vitro test from Roche Diagnostics GmbH (Gluco-quant, Roche Diagnostics GmbH) using the automated clinical chemistry analyzer Boehringer Mannheim/Hitachi 912.

Wistar rats = assay: Albumin and creatinine excretion in Wistar rats (non-diabetic nephropathy); details: for Albumin/Creatinine: Wistar rats, start at age 6 months, mean
Description: The albumin and creatinine excretion in Wistar rats was determined. One group was left untreated, one was treated with the ACE/NEP inhibitor of formula (II-B) and one group was treated with the ACE inhibitor ramipril. Wistar rats are non-diabetic and develop proteinuria and structural kidney damage during adult life. Wistar rats are therefore a model for non-diabetic nephropathy. [table]

[4] = tested on: Zucker diabetic fatty rats; assay: HbA1c analysis in ZDF rats; details: for HbA1c, mean: ZDF rats
Description: as §1
To obtain blood samples for HbA1c determination, disposable capillary tubes were used. HbA1c values were obtained from hemolyzed whole blood samples with a turbidimetric inhibition immunoassay (Tina-quant, Roche Diagnostics GmbH) and hemoglobin concentrations were determined in a second channel on an automated clinical chemistry analyzer (Boehringer Mannheim/Hitachi 912). HbA1c concentration in percent were calculated from HbA1c to total hemoglobin.

[5] = age 10 weeks (start of treatment)
[6] = age 17 weeks (treated for seven weeks)

`CC(=O)S[C@H](C(=O)N[C@H]1Cc2ccccc2[C@H]2CCC[C@@H](C(=O)O)N2C1=O)C(C)C` [cpd. (II-B)] was tested, and the Albumin/Creatinine (ZDF rats [1]; 6 weeks treatment) was 135.08 mg/mmol, the Albumin/Creatinine (ZDF rats [1]; 12 weeks treatment) was 100.86 mg/mmol and the Albumin/Creatinine (ZDF rats [1]; Basal) was 1330.99 mg/mmol. For the same compound, the “mean CML conc.” value (ZDF rats [2]; hearts of 17-week-old ZDF rats) was 26%, the “mean CML conc.” value (ZDF rats [2]; kidneys of 17-week-old ZDF rats) was 55% and the “mean CML conc.” value (ZDF rats [2]; kidneys of 37-week-old ZDF rats) was 58%. The “CML concentration in the heart of 17-week-old ZDF rats” value (ZDF rats [2]; in words) was “reduces”, the “CML concentration in the kidneys of 17-week-old ZDF rats” value (ZDF rats [2]; in words) was “reduces” and the “CML concentration in the kidneys of 37-week-old ZDF rats” value (ZDF rats [2]; in words) was “reduces”. For the same compound, the “Blood glucose concentration compared to the untreated ZDF rats” value ([3]; 17-week-old ZDF rats, in words) was “significantly lower”, the “blood glucose, mean” value [3, 5] was 10.67 mM and the “blood glucose, mean” value [3, 6] was 21.09 mM. For the same compound, the “Blood glucose value compared with the ACE inhibitor ramipril” value ([3]; in words) was “lower values”, the Albumin/Creatinine (Wistar rats; 6 weeks treatment) was 18.07 mg/mmol and the Albumin/Creatinine (Wistar rats; 12 weeks treatment) was 21.21 mg/mmol. For the same compound, the Albumin/Creatinine (Wistar rats; Basal) was 130.45 mg/mmol, the “Nephroprotective effect compared with ramipril as determined by the extent of proteinuria” value (Wistar rats; non-diabetic model, in words) was “significantly higher nephroprotective effect than ramipril” and the “HbA1c values compared to the untreated ZDF rats” value ([4]; 17-week-old ZDF rats, in words) was “significantly lower”. For the same compound, the “HbA1c, mean” value [4, 5] was 5.69%, the “HbA1c, mean” value [4, 6] was 8.24% and the “HbA1c value compared with the ACE inhibitor ramipril” value ([4]; in words) was “lower values”.
